Assay results reported in patent publication US20250186437A1, “CARBOLINE COMPOUNDS AND USE THEREOF” (PTC Therapeutics, Inc., priority 2021, published 2025).
Structures can show the parent of a compound that is named as a salt.

How the values were obtained:
MOLM-13 cells [1] = test: MOLM-13 Cell Proliferation Assay (indicator of DHODH inhibition); format: cell-based; conditions: Homo sapiens, 72 Hours of culture, CellTiter-Glo, no uridine
Outline: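 Proliferation readout via CellTiter-Glo luminescence after 72 h compound treatment (37 °C, 5% CO2, 0.5% DMSO) of MOLM-13 cells seeded at 10^4 per well in RPMI 1640/10% FBS, used as a DHODH-inhibition indicator since these cells rely on de novo pyrimidine synthesis.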

MOLM-13 cells [2] = test: MOLM-13 Uridine Rescue Assay; format: cell-based; conditions: Homo sapiens; MOLM-13 cell proliferation with 100 μM Uridine added, 72 Hours of culture
Method: The following assay was conducted to measure proliferation of MOLM-13 cells in the presence of each compound studied. This assay was included as an indicator of DHODH inhibition, as growth of MOLM-13 cells is known to depend on synthesis of pyrimidines using the de novo pathway, which can be blocked by inhibition of DHODH. • 1. MOLM-13 cells were cultured in RPMI 1640 medium+10% Fetal Bovine Serum (FBS). Only low passage cells (<20) were used for the compound tests • 2. On day 1, Log-phase growing Molm-13 Cells were counted and diluted to 10^5 cells/mL in RPMI 1640 medium+10% FBS • 3. 100 μL of diluted MOLM-13 cells in 96 well white plates were seeded, for a final density of 10^4 cells/well. • 4. 0.5 μL of pre-diluted 200× compounds or DMSO control was added to each well. The final DMSO concentration was 0.5%. • 5. After 72 Hours of culture at 37° C., 5% CO2, the plates were taken out and cooled to RT, then 50 μL CellTiter-Glo® (Promega) was added, and the composition was mixed at RT for 10 minutes. • 6. The plates were then read by ViewLux (Speed-fast, Gain-High, Bining-1X, 5 seconds).
Several compounds were also tested in a Uridine rescue assay. In the Uridine rescue assay, using the procedure in Example 1 above, an additional plate of MOLM-13 cell cultures was prepared, to which 100 μM of Uridine was added in step 3 of the process.

IC50 (MOLM-13 cells [1]) [µM]	IC50 (MOLM-13 cells [2]) [µM]	Structure (SMILES)
0.0011	19.3	Cc1ccc(C2c3[nH]c4c(N)cc(Cl)cc4c3CCN2c2nccc(C(F)(F)F)n2)cc1 (stereo not drawn) [Compound 231, 6-chloro-1-(4-methylphenyl)-2-[4-(trifluoromethyl)pyrimidin-2-yl]-2,3,4,9-tetrahydro-1H-pyrido[3,4-b]indol-8-amine]
0.0008	12.3	FC(F)(F)c1cc(C(F)(F)F)nc(N2CCc3c([nH]c4ccc(Cl)cc34)C2c2cnc(N3CCOCC3)nc2)n1 (stereo not drawn) [Compound 358, 2-[4,6-bis(trifluoromethyl)pyrimidin-2-yl]-6-chloro-1-[2-(morpholin-4-yl)pyrimidin-5-yl]-2,3,4,9-tetrahydro-1H-pyrido[3,4-b]indole formate (1:1)]
0.0016	16.4	Cc1cc(C(F)(F)F)nc(N2CCc3c([nH]c4ccc(Cl)cc34)C2c2ccc(N3CCOCC3)nc2)n1 (stereo not drawn) [Compound 372, 6-chloro-2-[4-methyl-6-(trifluoromethyl)pyrimidin-2-yl]-1-[6-(morpholin-4-yl)pyridin-3-yl]-2,3,4,9-tetrahydro-1H-pyrido[3,4-b]indole]
0.0003	14.7	Cc1ccc([C@H]2c3[nH]c4ccc(Cl)cc4c3CCN2c2nc(C(F)(F)F)cc(C(F)(F)F)n2)c(F)c1F [Compound 407, (1S)-2-[4,6-bis(trifluoromethyl)pyrimidin-2-yl]-6-chloro-1-(2,3-difluoro-4-methylphenyl)-2,3,4,9-tetrahydro-1H-pyrido[3,4-b]indole]
0.0075	29.7	Cc1ccc(C2c3[nH]c4ccc(Cl)c(N)c4c3CCN2c2nccc(C(F)(F)F)n2)c(F)c1F (stereo not drawn) [Compound 273, 6-chloro-1-(2,3-difluoro-4-methylphenyl)-2-[4-(trifluoromethyl)pyrimidin-2-yl]-2,3,4,9-tetrahydro-1H-pyrido[3,4-b]indol-5-amine]
0.0046	11.4	FC(F)(F)c1ccnc(N2CCc3c([nH]c4ccc(-n5nccn5)cc34)C2c2cnc(N3CCOCC3)nc2)n1 (stereo not drawn) [Compound 288, 1-[2-(morpholin-4-yl)pyrimidin-5-yl]-6-(2H-1,2,3-triazol-2-yl)-2-[4-(trifluoromethyl)pyrimidin-2-yl]-2,3,4,9-tetrahydro-1H-pyrido[3,4-b]indole]
0.0129	12.2	Cc1nc(C)nc(N2CCc3c([nH]c4ccc(Cl)cc34)C2c2ccc(N3CCOCC3)c(F)c2F)n1 (stereo not drawn) [Compound 284, 6-chloro-1-[2,3-difluoro-4-(morpholin-4-yl)phenyl]-2-(4,6-dimethyl-1,3,5-triazin-2-yl)-2,3,4,9-tetrahydro-1H-pyrido[3,4-b]indole]
0.0022	6.91	Cc1ccc(C2c3[nH]c4ccc(Cl)cc4c3CCN2c2nccc(C(F)(F)F)n2)c(F)c1 (stereo not drawn) [Compound 254, 6-chloro-1-(2-fluoro-4-methylphenyl)-2-[4-(trifluoromethyl)pyrimidin-2-yl]-2,3,4,9-tetrahydro-1H-pyrido[3,4-b]indole]
0.0208	12.4	Cc1ncnc(N2CCc3c([nH]c4ccc(Cl)cc34)C2c2cnc(N3CCOCC3)nc2)n1 (stereo not drawn) [Compound 294, 6-chloro-2-(4-methyl-1,3,5-triazin-2-yl)-1-[2-(morpholin-4-yl)pyrimidin-5-yl]-2,3,4,9-tetrahydro-1H-pyrido[3,4-b]indole]
0.001	15.2	Cc1ccc(C2c3[nH]c4ccc(Cl)cc4c3CCN2c2nc(C(F)(F)F)cc(C(F)(F)F)n2)c(F)c1F (stereo not drawn) [Compound 340, 2-[4,6-bis(trifluoromethyl)pyrimidin-2-yl]-6-chloro-1-(2,3-difluoro-4-methylphenyl)-2,3,4,9-tetrahydro-1H-pyrido[3,4-b]indole]
0.0128	10.6	Cc1nc(C)nc(N2CCc3c([nH]c4ccc(Cl)cc34)C2c2cnc(N3CCOCC3)nc2)n1 (stereo not drawn) [Compound 293, 6-chloro-2-(4,6-dimethyl-1,3,5-triazin-2-yl)-1-[2-(morpholin-4-yl)pyrimidin-5-yl]-2,3,4,9-tetrahydro-1H-pyrido[3,4-b]indole]
0.0003	8.35	FC(F)(F)c1nc(N2CCc3c([nH]c4ccc(Cl)cc34)[C@@H]2c2cnc(N3CCOCC3)nc2)nc(C(F)(F)F)n1 [Compound 406, (1S)-2-[4,6-bis(trifluoromethyl)-1,3,5-triazin-2-yl]-6-chloro-1-[2-(morpholin-4-yl)pyrimidin-5-yl]-2,3,4,9-tetrahydro-1H-pyrido[3,4-b]indole]
0.0048	14.9	Cc1cc(C)nc(N2CCc3c([nH]c4ccc(Cl)cc34)C2c2ccc(N3CCOCC3)nc2)n1 (stereo not drawn) [Compound 350, 6-chloro-2-(4,6-dimethylpyrimidin-2-yl)-1-[6-(morpholin-4-yl)pyridin-3-yl]-2,3,4,9-tetrahydro-1H-pyrido[3,4-b]indole]
0.001	11.6	Cc1ccc(C2c3[nH]c4ccc([N+](=O)[O-])cc4c3CCN2c2nccc(C(F)(F)F)n2)c(F)c1F (stereo not drawn) [Compound 305, 1-(2,3-difluoro-4-methylphenyl)-6-nitro-2-[4-(trifluoromethyl)pyrimidin-2-yl]-2,3,4,9-tetrahydro-1H-pyrido[3,4-b]indole]
0.001	7.6	Cc1cc(C(F)(F)F)nc(N2CCc3c([nH]c4ccc(Cl)cc34)C2c2ccc(C)c(F)c2F)n1 (stereo not drawn) [Compound 213, 6-chloro-1-(2,3-difluoro-4-methylphenyl)-2-[4-methyl-6-(trifluoromethyl)pyrimidin-2-yl]-2,3,4,9-tetrahydro-1H-pyrido[3,4-b]indole]
0.0106	0.72	N#Cc1cc(C#N)nc(N2CCc3c([nH]c4ccc(Cl)cc34)[C@@H]2c2cnc(N3CCOCC3)nc2)n1 [Compound 398, 2-{(1S)-6-chloro-1-[2-(morpholin-4-yl)pyrimidin-5-yl]-1,3,4,9-tetrahydro-2H-pyrido[3,4-b]indol-2-yl}pyrimidine-4,6-dicarbonitrile]
0.0033	19.8	Cc1ccc(C2c3[nH]c4ccc(Cl)cc4c3CCN2c2nccc(C(F)(F)F)n2)cc1 (stereo not drawn) [Compound 343, 6-chloro-1-(4-methylphenyl)-2-[4-(trifluoromethyl)pyrimidin-2-yl]-2,3,4,9-tetrahydro-1H-pyrido[3,4-b]indole]
0.0009	20.9	Cc1ccc(C2c3[nH]c4ccc(Br)cc4c3CCN2c2nccc(C(F)(F)F)n2)cc1 (stereo not drawn) [Compound 264, 6-bromo-1-(4-methylphenyl)-2-[4-(trifluoromethyl)pyrimidin-2-yl]-2,3,4,9-tetrahydro-1H-pyrido[3,4-b]indole]
0.0006	9.3	FC(F)(F)c1cc(C(F)(F)F)nc(N2CCc3c([nH]c4ccc(Cl)cc34)C2c2ccc(N3CCOCC3)nc2)n1 (stereo not drawn) [Compound 357, 2-[4,6-bis(trifluoromethyl)pyrimidin-2-yl]-6-chloro-1-[6-(morpholin-4-yl)pyridin-3-yl]-2,3,4,9-tetrahydro-1H-pyrido[3,4-b]indole formate (1:1)]
0.0043	6.81	Cc1cc(C#N)nc(N2CCc3c([nH]c4ccc(Cl)cc34)C2c2cnc(N3CCOCC3)nc2)n1 (stereo not drawn) [Compound 362, 2-{6-chloro-1-[2-(morpholin-4-yl)pyrimidin-5-yl]-1,3,4,9-tetrahydro-2H-pyrido[3,4-b]indol-2-yl}-6-methylpyrimidine-4-carbonitrile]
0.0232	11.5	Cc1ccc(C2c3[nH]c4cc(N)c(Cl)cc4c3CCN2c2nccc(C(F)(F)F)n2)c(F)c1F (stereo not drawn) [Compound 282, 6-chloro-1-(2,3-difluoro-4-methylphenyl)-2-[4-(trifluoromethyl)pyrimidin-2-yl]-2,3,4,9-tetrahydro-1H-pyrido[3,4-b]indol-7-amine]
0.0029	10.5	Nc1c(Cl)ccc2[nH]c3c(c12)CCN(c1nccc(C(F)(F)F)n1)C3c1cnc(N2CCOCC2)nc1 (stereo not drawn) [Compound 328, 6-chloro-1-[2-(morpholin-4-yl)pyrimidin-5-yl]-2-[4-(trifluoromethyl)pyrimidin-2-yl]-2,3,4,9-tetrahydro-1H-pyrido[3,4-b]indol-5-amine]
0.008	5.67	N#Cc1ccnc(N2CCc3c([nH]c4ccc(Cl)cc34)C2c2cnc(N3CCOCC3)nc2)n1 (stereo not drawn) [Compound 359, 2-{6-chloro-1-[2-(morpholin-4-yl)pyrimidin-5-yl]-1,3,4,9-tetrahydro-2H-pyrido[3,4-b]indol-2-yl}pyrimidine-4-carbonitrile]

Structure (SMILES)	IC50 (MOLM-13 cells [1]) [µM]	IC50 (MOLM-13 cells [2]) [µM]
Cc1ccc(C2c3[nH]c4c(O)cc(Cl)cc4c3CCN2c2nccc(C(F)(F)F)n2)c(F)c1F (stereo not drawn) [Compound 220, 6-chloro-1-(2,3-difluoro-4-methylphenyl)-2-[4-(trifluoromethyl)pyrimidin-2-yl]-2,3,4,9-tetrahydro-1H-pyrido[3,4-b]indol-8-ol]	0.0011	6.7
